Like-named read-outs stand apart in the source and are kept apart here.
What was measured:
[1] = molecular target: full-length FLAG-tagged B-Raf(V600E) (Homo sapiens (Human), UniProt P15056, V600E); assay: BRAF V600E enzyme assay (TR-FRET competitive displacement); format: binding; conditions: averaged IC50; 60 min, ambient temperature
From the text: (§1) A competitive displacement assay was configured for B-Raf that monitors the amount of a fluorescently-tagged “tracer” bound to B-Raf via TR-FRET from an anti-tag Eu-labeled antibody also bound to B-Raf.
(§2) [formula] • where: • Xmax Average Uninhibited Controls • Xm Average Background
(§3) A 4-parameter logistic model was the fit to the POC data for each compound.

[2] = molecular target: T1, P-gp (MDR1) (Homo sapiens (Human), UniProt P08183); assay: MDR1 efflux ratio in MDR1 transfected LLC-PK1 cells; conditions: for MDR1 efflux ratio: Papp(B−A)/Papp(A−B), MDR1 transfected LLC-PK1 cells, 1 μM; for efflux ratio at 2 h, 1 μM: pig, LLC-PK1
Experimental: (§4) Both LLC-PK1 and MDR1 transfected LLC-PK1 cells were cultured and plated according to manufacturer's recommendations with the exception that the passage media contained only 2% fetal bovine serum to extend passage time out to seven days.
(§5) Both positive and negative controls were used to assess functionality of P-gp or BCRP efflux in the assays. […] Final organic concentration in the assay was 1%. All dosing solutions contained 10 μM lucifer yellow to monitor LLC-PK1 or MDCKII cell monolayer integrity.
(§6) For the apical to basolateral determination (A to B), 75 μL of the test article in transport buffer were added to the apical side of the individual transwells and 250 μL of basolateral media, without compound or lucifer yellow, were added to each well. For the basolateral to apical determination (B to A), 250 μL of test article in transport buffer were added to each well and 75 μL transport buffer, without compound or lucifer yellow, were added to each transwell. All tests were performed in triplicate, and each compound was tested for both apical to basolateral and basolateral to apical transport. The plates were incubated for 2 hours on a Lab-Line Instruments Titer Orbital Shaker (VWR, West Chester, Pa.) at 50 rpm and 37° C. with 5% CO2. All culture plates were removed from the incubator and 50 μL of media were removed from the apical and basolateral portion of each well and added to 150 μL of 1 μM labetalol in 2:1 acetonitrile (acetonitrile): H2O, v/v.
(§7) These values were accepted when found to be below 2% for apical to basolateral and 5% basolateral to apical flux across the MDR1-transfected LLC-PK1 or BCRP-transfected MDCKII cell monolayers. The plates were sealed and the contents of each well analyzed by LC-MS/MS. The compound concentrations were determined from the ratio of the peak areas of the compound to the internal standard (labetalol) in comparison to the dosing solution.
(§8) The LC-MS/MS system was comprised of an HTS-PAL autosampler (Leap Technologies, Carrboro, N.C.), an HP1200 HPLC (Agilent, Palo Alto, Calif.), and a MDS Sciex 4000 Q Trap system (Applied Biosystems, Foster City, Calif.). […] The total run time, including re-equilibration, for a single injection was 1.2 minutes. Mass spectrometric detection of the analytes was accomplished using the ion spray positive mode.
(§9) An efflux ratio is calculated from the mean apical to basolateral (A-B) Papp data and basolateral to apical (B-A) Papp data: Efflux ratio=Papp(B−A)/Papp(A−B)

[3] = test system: LLC-PK1 or MDCKII cell monolayer; assay: MDR1 LLC-PK1 and BCRP MDCKII permeability assay (Papp); conditions: Papp; test article 1 μM, 2 hours, 37° C.
Experimental: (§10) MDR1 LLC-PK1 and BCRP MDCKII Permeability Assay
as §4
(§11) BCRP transfected MDCKII cells were cultured and plated according to manufacturer's recommendations. Assay conditions included with and without the BCRP-specific inhibitor, KO0143, at a concentration of 0.3 μM to ascertain the contribution of BCRP to the efflux value of the test compound.
as §5, §6, §7, §8
(§12) where Cd, V, t and C0 are the detected concentration (μM), the volume on the dosing side (mL), the incubation time (s) and the initial dosing concentration (μM), respectively. The calculations for Papp were made for each replicate and then averaged.

[4] = molecular target: T2, BCRP (Homo sapiens (Human), UniProt Q9UNQ0); assay: BCRP efflux ratio in BCRP transfected MDCKII cells; conditions: for BCRP efflux ratio: Papp(B−A)/Papp(A−B), BCRP transfected MDCKII cells, 1 μM; for efflux ratio at 2 h, 1 μM: dog
Experimental: as §10, §11, §5, §6, §7, §8, §9

[5] = test system: A375-luciferase intracranial tumor xenografts; assay: Intracranial A375-luciferase efficacy and survival mouse tumor model; format: in vivo, Female nu/nu NCr mice; conditions: BID PO 60 consecutive days, FIG. 15
Experimental: Female nu/nu NCr mice from Envigo (Indianapolis, Ind.) were obtained at 5-6 weeks of age and housed in groups of 5. Following a one week minimum acclimation period, mice received orthotopic (i.c.) intracranial injections of 3.0×10^3 A375-luciferase tumor cells suspended in a volume of 10 μL 0.9% sterile Dulbecco's phosphate buffered saline (DPBS) using the top-down approach (Laursen and Belknap, 1986). Seven days post cell implant (Day 1), animals were randomized and sorted into five groups (n=10/group).
Test compounds were given at a dose volume of 10 mL/kg, and vehicles were matched for each group to control for dosing stress, i.e. all groups received twice daily (BID) dose administration by oral gavage (PO) at the relevant dose volumes and schedule shown in Table 9. Tumor growth was monitored by measuring luciferase activity twice per week. Total flux/mouse can vary by an order of magnitude on day 1 of study start (start of dosing). The total flux was normalized per mouse by assigning the first measurement of flux on day 2 as 100%. Body weight loss as an indicator of tumor progression was determined daily during the dosing interval and then as needed (at least once weekly). Survival was evaluated through day 90 (30 days post-dosing cessation).

[6] = molecular target: GST-tagged B-Raf(V600K) (Homo sapiens, UniProt P15056, V600K); assay: BRAF V600K enzyme assay (TR-FRET competitive displacement); format: binding; conditions: averaged IC50; 60 min, ambient temperature
From the text: as §1, §2, §3

[7] = PK (free brain-to-free plasma ratio) (mouse); format: in vivo; conditions: male CD-1 mice, oral gavage 10 mg/kg, (B/P)*(Bfu/Pfu)
Experimental: PK (Free Brain-to-Free Plasma Ratio) (Mouse)
The ability of representative compounds to penetrate the BBB in mice was determined by evaluating the unbound brain-to-unbound plasma (also referred to as free brain-to-free plasma) concentration ratio in male CD-1 mice.
Brain samples were stored at −20±5° C. prior to analysis. Concentrations of test compound in mouse brain homogenate were determined by liquid chromatography tandem mass spectrometry (LC-MS/MS) following protein precipitation with acetonitrile. A 12-point calibration curve, ranging from 0.5 to 10,000 ng/mL, was prepared in duplicate. A solution of 400 μg/mL of test compound in dimethyl sulfoxide (DMSO) was serially diluted (3-fold) in 100% DMSO, and then 2.5 μL of each standard solution was added to 100 μL of naïve male CD-1 mice brain homogenate. To mimic the extraction in the standard curve, 2.5 μL of DMSO was added to all test samples. […]
Brain-to-plasma ratios were calculated using the concentration of compound measured in the brain divided by the concentration of compound measured in the plasma. […] Free brain-to-free plasma ratios were calculated by multiplying the brain-to-plasma ratio by the in vitro brain homogenate free fraction divided by the in vitro plasma free fraction using the following equation: (B/P)*(Bfu/Pfu).

[8] = MDR1 LLC-PK1 and BCRP MDCKII permeability assay (Papp)
Experimental: as §10, §4, §11, §5, §6, §7, §8, §12

[9] = molecular target: T1, P-gp (MDR1); conditions: pig, LLC-PK1, 2 h, 1 μM
Experimental: as §4, §5, §6, §7, §8, §9

[10] = test system: LLC-PK1 or MDCKII cell monolayer
Experimental: as §10, §4, §11, §5, §6, §7, §8, §12

[11] = molecular target: T2, BCRP; conditions: dog, 2 h, 1 μM
Experimental: as §10, §11, §5, §6, §7, §8, §9

[12] = test system: BCRP; conditions: reported by Mittapalli et al.; cited from earlier work

T2 sequence (Q9UNQ0 whole entry, species assumed): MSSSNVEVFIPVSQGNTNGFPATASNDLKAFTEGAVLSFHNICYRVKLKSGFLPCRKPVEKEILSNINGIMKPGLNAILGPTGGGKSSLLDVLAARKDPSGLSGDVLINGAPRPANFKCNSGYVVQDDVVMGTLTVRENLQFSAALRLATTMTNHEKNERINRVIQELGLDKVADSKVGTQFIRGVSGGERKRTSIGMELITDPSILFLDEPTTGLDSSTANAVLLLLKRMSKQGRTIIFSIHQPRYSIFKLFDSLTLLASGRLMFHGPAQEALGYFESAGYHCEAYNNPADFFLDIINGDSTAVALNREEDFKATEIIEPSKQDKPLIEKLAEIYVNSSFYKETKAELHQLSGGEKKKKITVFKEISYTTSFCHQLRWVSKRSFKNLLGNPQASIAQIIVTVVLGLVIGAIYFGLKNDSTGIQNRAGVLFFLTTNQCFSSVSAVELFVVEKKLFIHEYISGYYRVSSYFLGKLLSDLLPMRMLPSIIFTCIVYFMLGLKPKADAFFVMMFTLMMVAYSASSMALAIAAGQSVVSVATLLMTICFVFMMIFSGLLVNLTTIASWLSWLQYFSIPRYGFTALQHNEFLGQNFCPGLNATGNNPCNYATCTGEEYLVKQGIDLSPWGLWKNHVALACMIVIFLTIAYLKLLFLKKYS
full-length FLAG-tagged B-Raf(V600E), sequence (P15056 whole entry V600E): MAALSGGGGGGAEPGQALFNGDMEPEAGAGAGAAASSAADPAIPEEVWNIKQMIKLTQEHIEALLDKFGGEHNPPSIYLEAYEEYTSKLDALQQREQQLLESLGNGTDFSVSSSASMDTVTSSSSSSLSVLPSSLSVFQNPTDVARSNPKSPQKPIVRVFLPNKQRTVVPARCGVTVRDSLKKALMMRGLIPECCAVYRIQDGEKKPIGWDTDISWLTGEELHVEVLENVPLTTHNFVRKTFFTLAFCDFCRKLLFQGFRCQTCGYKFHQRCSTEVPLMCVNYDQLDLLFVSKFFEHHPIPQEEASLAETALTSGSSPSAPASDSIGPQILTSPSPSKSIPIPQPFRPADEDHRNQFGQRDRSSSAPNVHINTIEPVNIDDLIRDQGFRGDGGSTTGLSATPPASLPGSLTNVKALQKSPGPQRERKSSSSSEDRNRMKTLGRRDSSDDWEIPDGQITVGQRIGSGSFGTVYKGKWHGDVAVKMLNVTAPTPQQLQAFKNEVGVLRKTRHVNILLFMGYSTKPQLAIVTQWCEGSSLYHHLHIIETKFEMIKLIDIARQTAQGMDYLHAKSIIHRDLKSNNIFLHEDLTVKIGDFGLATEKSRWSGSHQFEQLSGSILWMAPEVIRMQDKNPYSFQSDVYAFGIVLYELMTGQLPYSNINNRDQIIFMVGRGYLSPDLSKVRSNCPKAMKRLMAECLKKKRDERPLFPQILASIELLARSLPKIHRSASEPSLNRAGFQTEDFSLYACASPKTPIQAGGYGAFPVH
T1 sequence (P08183 whole entry, species assumed): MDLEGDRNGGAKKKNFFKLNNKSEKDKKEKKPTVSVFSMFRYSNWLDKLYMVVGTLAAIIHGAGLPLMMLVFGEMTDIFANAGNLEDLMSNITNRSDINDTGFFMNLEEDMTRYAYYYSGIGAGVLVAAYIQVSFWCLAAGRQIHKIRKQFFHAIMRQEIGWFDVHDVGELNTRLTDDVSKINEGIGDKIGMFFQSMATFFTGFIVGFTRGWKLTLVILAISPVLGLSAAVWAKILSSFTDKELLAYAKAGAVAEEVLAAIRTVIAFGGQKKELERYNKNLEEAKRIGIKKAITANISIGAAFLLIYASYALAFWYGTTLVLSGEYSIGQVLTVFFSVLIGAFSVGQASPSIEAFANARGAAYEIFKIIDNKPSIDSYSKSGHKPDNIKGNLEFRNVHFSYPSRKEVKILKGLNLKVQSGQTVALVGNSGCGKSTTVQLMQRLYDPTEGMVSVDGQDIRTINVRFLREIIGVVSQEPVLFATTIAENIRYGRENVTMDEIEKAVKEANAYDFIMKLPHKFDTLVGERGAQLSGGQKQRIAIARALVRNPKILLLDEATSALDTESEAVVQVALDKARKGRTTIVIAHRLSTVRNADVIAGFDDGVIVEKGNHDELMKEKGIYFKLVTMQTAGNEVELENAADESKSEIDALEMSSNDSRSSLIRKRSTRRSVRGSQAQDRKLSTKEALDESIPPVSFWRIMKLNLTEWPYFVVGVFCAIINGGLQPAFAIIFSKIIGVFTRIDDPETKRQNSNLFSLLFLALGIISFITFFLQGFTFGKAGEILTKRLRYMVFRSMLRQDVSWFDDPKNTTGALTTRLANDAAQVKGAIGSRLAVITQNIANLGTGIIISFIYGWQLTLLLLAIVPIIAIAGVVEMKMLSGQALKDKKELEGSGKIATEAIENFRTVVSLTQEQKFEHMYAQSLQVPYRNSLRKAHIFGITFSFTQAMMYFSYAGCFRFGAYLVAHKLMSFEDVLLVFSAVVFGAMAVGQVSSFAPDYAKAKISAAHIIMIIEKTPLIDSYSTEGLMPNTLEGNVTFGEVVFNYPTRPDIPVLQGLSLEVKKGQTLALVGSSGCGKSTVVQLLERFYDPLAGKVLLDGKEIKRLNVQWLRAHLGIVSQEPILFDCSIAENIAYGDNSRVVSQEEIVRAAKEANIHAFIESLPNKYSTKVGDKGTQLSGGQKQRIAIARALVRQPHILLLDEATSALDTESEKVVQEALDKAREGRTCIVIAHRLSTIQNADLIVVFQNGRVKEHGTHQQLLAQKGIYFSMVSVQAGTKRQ
GST-tagged B-Raf(V600K), sequence (P15056 2-766 V600K limits assumed): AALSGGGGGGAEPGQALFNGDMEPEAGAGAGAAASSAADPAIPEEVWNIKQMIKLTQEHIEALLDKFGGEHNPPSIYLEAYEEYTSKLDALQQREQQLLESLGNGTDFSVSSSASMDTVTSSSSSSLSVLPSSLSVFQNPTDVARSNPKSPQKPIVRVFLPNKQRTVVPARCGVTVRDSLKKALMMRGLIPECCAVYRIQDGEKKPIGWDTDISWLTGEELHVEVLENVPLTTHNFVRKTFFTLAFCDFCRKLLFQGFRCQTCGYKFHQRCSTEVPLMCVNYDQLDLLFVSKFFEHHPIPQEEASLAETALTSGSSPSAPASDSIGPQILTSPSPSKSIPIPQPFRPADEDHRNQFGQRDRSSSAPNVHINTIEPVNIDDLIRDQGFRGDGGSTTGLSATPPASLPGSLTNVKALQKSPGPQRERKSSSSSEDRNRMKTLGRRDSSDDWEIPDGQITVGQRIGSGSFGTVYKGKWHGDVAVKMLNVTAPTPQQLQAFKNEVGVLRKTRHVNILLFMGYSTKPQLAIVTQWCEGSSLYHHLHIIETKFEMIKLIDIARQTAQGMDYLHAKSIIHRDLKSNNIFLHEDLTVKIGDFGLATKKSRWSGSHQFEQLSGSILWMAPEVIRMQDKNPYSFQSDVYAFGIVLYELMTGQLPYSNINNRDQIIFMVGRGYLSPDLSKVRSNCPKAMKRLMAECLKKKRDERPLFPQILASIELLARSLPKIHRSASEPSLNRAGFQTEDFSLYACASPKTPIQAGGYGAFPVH

Compound | IC50 [1] [nM] | MDR1 efflux ratio [2] | Permeability (*10^−6 cm/s) [3] | BCRP efflux ratio [4] | further results
N-(3-chloro-4-((3,5- dimethyl-4-oxo-3,4- dihydroquinazolin-6- yl)amino)-5- fluoropyridin-2-yl)-1- cyclopropyl- methanesulfonamide [Example 47] | 41.7 | 1.84 | 25.7 *10^−6 cm/s | 7.93 | 
Cc1c(Nc2c(F)ccc(NS(=O)(=O)CCCF)c2Cl)ccc2ncn(C)c(=O)c12 [Example 82, N-(2-chloro-3-((3,5-dimethyl-4-oxo-3,4-dihydroquinazolin-6-yl)amino)-4-fluorophenyl)-3-fluoropropane-1-sulfonamide] |  |  |  |  | Tumor growth (total bioluminescence, luciferase activity) [5]: significant effect on tumor growth
CCCS(=O)(=O)Nc1ncc(F)c(Oc2ccc3ncn(C)c(=O)c3c2C)c1Cl [Example 63, N-(3-chloro-4-((3,5-dimethyl-4-oxo-3,4-dihydroquinazolin-6-yl)oxy)-5-fluoropyridin-2-yl)propane-1-sulfonamide] | 2.8 |  |  |  | IC50 [6]: 2.4 nM; Kp,uu (unbound brain-to-unbound plasma ratio) [7]: 0.34 to 0.4; efflux ratio at 2 h, 1 μM [2]: 1.3; Papp at 2 h, 1 μM [8]: 26.1 ×10⁻⁶ cm/s; efflux ratio at 2 h, 1 μM [4]: 7.7
N-(4-((3,5-dimethyl-4- oxo-3,4- dihydroquinazolin-6- yl)amino)-3,5- difluoropyridin-2- yl)ethanesulfonamide [Example 43] | 260 | 5.24 | 8.75 *10^−6 cm/s | 26.02 | 
N-(2-cyano-3-((3,5- dimethyl-4-oxo-3,4- dihydroquinazolin-6- yl)amino)phenyl) propane-1-sulfonamide [Example 53] | 9.4 |  |  |  | MDR1 efflux ratio [9]: 2.6; Permeability (*10^−6 cm/s) ([10]; 2 h, 1 μM): 27.13 *10^−6 cm/s; BCRP efflux ratio [11]: 22.97
CCCS(=O)(=O)Nc1cc(Cl)cc(Nc2ccc3ncn(C)c(=O)c3c2C)c1Cl [Example 48, N-(2,5-dichloro-3-((3,5-dimethyl-4-oxo-3,4-dihydroquinazoli-6-yl)amino)phenyl) propane-1-sulfonamide] |  |  |  |  | Permeability (*10^−6 cm/s) [10]: 25.83 *10^−6 cm/s
N-(2-chloro-3-((3,5- dimethyl-4-oxo-3,4- dihydroquinazolin-6- yl)amino)-5- fluorophenyl)-3- fluoropropane-1- sulfonamide [Example 44] | 6.05 | 1.05 | 24.2 *10^−6 cm/s | 2.84 | 
CCCS(=O)(=O)Nc1ccc(F)c(Oc2ccc3ncn(C)c(=O)c3c2C)c1Cl [Example 55, N-{2-chloro-3-[(3,5-dimethyl-4-oxo-3,4-dihydroquinazolin-6-yl)oxy]-4-fluorophenyl}propane-1-sulfonamide] | 5.4 |  |  |  | IC50 [6]: 3.1 nM; Kp,uu (unbound brain-to-unbound plasma ratio) [7]: 0.46 to 0.51; efflux ratio at 2 h, 1 μM [2]: 1.1; Papp at 2 h, 1 μM [8]: 23.8 ×10⁻⁶ cm/s; efflux ratio at 2 h, 1 μM [4]: 0.83
N-(2-chloro-3-((3,5- dimethyl-4-oxo-3,4- dihydroquinazolin-6- yl)amino)-4- fluorophenyl) ethanesulfonamide [Example 52] | 226 | 1.76 | 28.91 *10^−6 cm/s | 1.28 | 
N-(2-chloro-3-((3,5- dimethyl-4-oxo-3,4- dihydroquinazolin-6- yl)amino)-4- fluorophenyl)-1- cyclopropyl- methanesulfonamide [Example 50] | 66.1 | 1.54 | 21.88 *10^−6 cm/s | 1.13 | 
CCN(C)S(=O)(=O)Nc1ccc(F)c(Nc2ccc3ncn(C)c(=O)c3c2C)c1Cl [Example 54, N-(2-chloro-3-((3,5-dimethyl-4-oxo-3,4-dihydroquinazolin-6-yl)amino)-4-fluorophenyl)-N-ethyl-N-methylamino-1-sulfonamide] |  |  |  |  | Permeability (*10^−6 cm/s) [10]: 35.81 *10^−6 cm/s
Cc1c(Nc2c(F)cnc(NS(=O)(=O)CC3CC3)c2F)ccc2ncn(C)c(=O)c12 [Example 42, 1-cyclopropyl-N-(4-((3,5-dimethyl-4-oxo-3,4-dihydroquinazolin-6-yl)amino)-3,5-difluoropyridin-2-yl) methanesulfonamide] | 60.3 | 5.26 | 18.35 *10^−6 cm/s | 23.73 | 
N-(3-chloro-4-((3,5- dimethyl-4-oxo-3,4- dihydroquinazolin-6- yl)amino)-5- fluoropyridin-2- yl)ethanesulfonamide [Example 45] | 137 | 2.47 | 16.56 *10^−6 cm/s | 11.29 | 
CC(C)(C)c1nc(-c2cccc(NS(=O)(=O)c3c(F)cccc3F)c2F)c(-c2ccnc(N)n2)s1 [dabrafenib] |  |  |  |  | BCRP efflux ratio [12]: 21.0
N-(3-((3,5-dimethyl-4- oxo-3,4- dihydroquinazolin-6- yl)amino)-2-fluoro-5- methylphenyl)propane- 1-sulfonamide [Example 46] | 148 |  |  |  | MDR1 efflux ratio [9]: 1.43; Permeability (*10^−6 cm/s) ([10]; 2 h, 1 μM): 30.74 *10^−6 cm/s; BCRP efflux ratio [11]: 1.48
N-(2-chloro-3-((3,5- dimethyl-4-oxo-3,4- dihydroquinazolin-6- yl)amino)-4- fluorophenyl)-2- methylpropane-1- sulfonamide [Example 51] | 63.4 | 1.64 | 27.16 *10^−6 cm/s | 1.28 | 
N-(2-chloro-3-((3,5- dimethyl-4-oxo-3,4- dihydroquinazolin-6- yl)amino)-4- fluorophenyl) benzenesulfonamide [Example 49] | 3.95 | 1.24 | 30.68 *10^−6 cm/s | 0.97 | 
